Reference: US20050255582A1, “Surface modifying composition” (Arch Development Corporation:, priority 2000, published 2005)

Legend:
Type in all cases: binding
Fibrinogen = assay: SPR adsorption of protein on monolayers: fibrinogen; conditions: for amount of protein that remains adsorbed to the SAM (Fibrinogen): protein 0.5 mg/ml in PBS pH 7.6, SAM on gold
Procedure: (§1) Two experimental procedures were used to evaluate the monolayers as inert surfaces. Surface plasmon resonance (SPR) spectroscopy measures the adsorption of protein to the monolayer. All SPR experiments were performed on a BIAcore 1000 instrument. Substrates were glued into plastic BIACore cassettes with a two-part epoxy (DEVCON). Phosphate-buffered saline (PBS; 10 mM phosphate, 150 mM sodium chloride, pH 7.6) was degassed under vacuum and all protein solutions were filtered through 0.45-μm filters before use. SPR is well suited for characterization of protein adsorption because it measures adsorption in situ and can detect weak, readily reversible protein adsorption. For all monolayers, a panel of five proteins that spanned a range in molecular weight and pI were investigated.
Protein adsorption and cell attachment on four different monolayers was compared. Gold films were prepared by evaporation of titanium (1.5 nm) and then gold (40 nm) onto glass cover slips (0.20 mm, No. 2, Corning). The SAMs were prepared by immersing gold films of approximately 1 cm^2 in ethanolic solutions of alkanethiol (2 mM) for 9 hours. The SAMs were rinsed with ethanol and dried with nitrogen before use. As a control monolayer that is not inert, a SAM of hexadecanethiolate that presents hydrophobic methyl groups at the surface were used. Monolayers terminated in the tri(ethylene glycol) group were used as the current standard for inert surfaces. Each of the two additional monolayers presents the mannitol group and differs only in the length of alkyl chain to which the mannitol group is appended. [drawing 9]
SPR was used to measure the adsorption of five proteins—fibrinogen, pepsin, lysozyme, insulin, and trypsin—to the four monolayers. SPR measures changes in the refractive index of a solution near the interface with a gold film by measuring changes in the angle (ΔΘm) at which p-polarized light reflected from the glass/gold interface has a minimum in intensity. SAMs were mounted in a flow cell and experiments were performed by first flowing a phosphate buffered saline (PBS) through the cell for 5 minutes, then a solution of protein in the same buffer (0.5 mg/ml) for 5 minutes, and then PBS for 5 minutes. The rise in ΔΘm upon introduction of the protein solution has two contributions. […] The second contribution is due to the adsorption of protein to the SAM. The amount of protein that adsorbs irreversibly to the SAM is determined by comparing the shift in Θm before and after the SAM is exposed to protein. An increase in Θm of 0.1° corresponds to an increase in density of adsorbed protein of 1 ng/mm^2.

Pepsin = Pepsin (Homo sapiens, UniProt P0DJD8); assay: SPR adsorption of protein on monolayers: pepsin; conditions: protein 0.5 mg/ml in PBS pH 7.6, SAM on gold
Sequence of Pepsin (P0DJD8 63-388): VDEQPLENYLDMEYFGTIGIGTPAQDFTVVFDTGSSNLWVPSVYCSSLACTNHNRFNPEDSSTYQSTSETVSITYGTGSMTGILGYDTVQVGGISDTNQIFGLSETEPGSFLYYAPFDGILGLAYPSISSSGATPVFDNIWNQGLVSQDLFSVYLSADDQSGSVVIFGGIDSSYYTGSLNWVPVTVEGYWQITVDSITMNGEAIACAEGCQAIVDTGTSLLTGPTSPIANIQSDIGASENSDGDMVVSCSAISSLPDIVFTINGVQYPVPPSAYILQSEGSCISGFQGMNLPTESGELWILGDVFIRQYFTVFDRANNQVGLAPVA
Procedure: as §1
(§2) Protein adsorption and cell attachment on four different monolayers was compared. Gold films were prepared by evaporation of titanium (1.5 nm) and then gold (40 nm) onto glass cover slips (0.20 mm, No. 2, Corning). […]
(§3) SPR was used to measure the adsorption of five proteins—fibrinogen, pepsin, lysozyme, insulin, and trypsin—to the four monolayers. […] The amount of protein that adsorbs irreversibly to the SAM is determined by comparing the shift in Θm before and after the SAM is exposed to protein. […]

Lysozyme = molecular target: T1, Lysozyme (Homo sapiens, UniProt P61626); assay: SPR adsorption of protein on monolayers: lysozyme; conditions: protein 0.5 mg/ml in PBS pH 7.6, SAM on gold
T1 sequence (P61626 19-148): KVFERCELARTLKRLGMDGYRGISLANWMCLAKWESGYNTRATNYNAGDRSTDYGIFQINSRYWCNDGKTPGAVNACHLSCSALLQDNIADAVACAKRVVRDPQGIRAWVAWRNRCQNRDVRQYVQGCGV
Procedure: as §1, §2, §3

Insulin = assay: SPR adsorption of protein on monolayers: insulin; conditions: protein 0.5 mg/ml in PBS pH 7.6, SAM on gold
Procedure: as §1, §2, §3

Trypsin = assay: SPR adsorption of protein on monolayers: trypsin; conditions: protein 0.5 mg/ml in PBS pH 7.6, SAM on gold
Procedure: as §1, §2, §3

Question: Which “adsorption of fibrinogen to the SAM (in words)” value (Fibrinogen; FIG. 1) does the source give for `CCCCCCCCCCCCCCCCS` [HDT, hexadecanethiolate] here?
Answer: The value was “A complete monolayer of protein adsorbs”.

Question: And the “change in Θm on adsorption of fibrinogen” value (Fibrinogen; FIG. 1)?
Answer: The value was 0.35 °.

Question: What about the “amount of protein that remains adsorbed to the SAM (Fibrinogen)” value (Fibrinogen) of the same compound?
Answer: The value was 3,432 pg/mm^2.

Question: What about the “amount of protein that remains adsorbed to the SAM (Fibrinogen)” value (Fibrinogen; listed as hexadecanethiolate) of the same compound?
Answer: The value was 3,500 pg/mm^2.

Question: What about the “amount of protein that remains adsorbed to the SAM (Pepsin)” value (Pepsin) of the same compound?
Answer: The value was 1,337 pg/mm^2.

Question: And the “amount of protein that remains adsorbed to the SAM (Lysozyme)” value (Lysozyme)?
Answer: The value was 1,023 pg/mm^2.

Question: And the “amount of protein that remains adsorbed to the SAM (Insulin)” value (Insulin)?
Answer: The value was 688 pg/mm^2.

Question: What about the “amount of protein that remains adsorbed to the SAM (Trypsin)” value (Trypsin) of the same compound?
Answer: The value was 661 pg/mm^2.
